From ChEMBL document CHEMBL1137920, “Design and synthesis of 1-(4-benzoylphenyl)imidazole derivatives as new potent 20-HETE synthase inhibitors” (Bioorg Med Chem Lett, 2004)
pIC50: −log10 of the molar value.

Test: Inhibitory activity against 20-Hydroxy-5,8,11,14-eicosatetraenoic acid synthase from arachidonic acid in rat renal microsome

SMILES	pIC50
C#CCCCCCCCCCCCCCCCC(=O)O	< 5.30
O=C(O)CCCCCCCCCC=C(Br)Br	5.70
C#CCCCCCCCCCOS(=O)(=O)O	5.12
CS(=O)(=O)NC(=O)CCCCCCCCCC=C(Br)Br	5.70
CCCCc1ccc(/N=C/NO)c(C)c1	7.45
O=C(c1ccccc1)c1ccc(-n2ccnc2)cc1	6.51

Test: Inhibitory activity against 20-Hydroxy-5,8,11,14-eicosatetraenoic acid synthase from arachidonic acid in human renal microsome

SMILES	pIC50
Cc1cc(C(=O)c2ccc(-n3ccnc3)cc2)ccc1OCCCCCC(=O)O	8.10
Cc1cc(C(=O)c2ccc(-n3ccnc3)cc2)ccc1OCCCCCCCCCC(=O)O	7.14
Cc1cc(C(=O)c2ccc(-n3ccnc3)cc2)ccc1OCCCCC(=O)O	7.92
Cc1cc(C(=O)c2ccc(-n3ccnc3)cc2)ccc1OCCCCCCC(=O)O	7.66
Cc1cc(C(=O)c2ccc(-n3ccnc3)cc2)ccc1OCCCCCCCC(=O)O	7.36
Cc1ccc(OCCCCC(=O)O)c(C(=O)c2ccc(-n3ccnc3)cc2)c1	5.08
Cc1ccc(OCCCC(=O)O)c(C(=O)c2ccc(-n3ccnc3)cc2)c1	< 5.00
Cc1ccc(OCCCCCCC(=O)O)c(C(=O)c2ccc(-n3ccnc3)cc2)c1	5.61
Cc1ccc(OCCCCCCCCCC(=O)O)c(C(=O)c2ccc(-n3ccnc3)cc2)c1	5.17
Cc1ccc(OCCCCCCCC(=O)O)c(C(=O)c2ccc(-n3ccnc3)cc2)c1	5.32
Cc1ccc(OCCCCCC(=O)O)c(C(=O)c2ccc(-n3ccnc3)cc2)c1	5.48

Test: Inhibitory activity against 20-Hydroxy-5,8,11,14-eicosatetraenoic acid synthase from arachidonic acid in human renal microsome

SMILES	pIC50
Cc1cc(C(=O)c2ccc(-n3ccnc3)cc2)ccc1OCCCC(=O)O	7.89
